Results from ChEMBL document CHEMBL1157539, “Thousands of chemical starting points for antimalarial lead identification” (Nature, 2010).

These compounds were tested on Plasmodium falciparum (assay: GSK_TCMDC: Inhibition of Plasmodium falciparum 3D7 in whole erythrocytes, using parasite LDH activity as an index of growth.). Details: Plasmodium falciparum, 3D7.
Assay type: functional, organism-based

SMILES | XC50
Nc1cc(/C=C/c2ccc([N+](=O)[O-])s2)nc2ccccc12 | 760 nM
CCN(CC)CCN(Cc1ccc(-c2ccc(C(F)(F)F)cc2)cc1)C(=O)Cn1c(CCc2ccccc2F)nc(=O)c2ccccc21 | 934 nM
Oc1ccc(Nc2ccnc3cc(Cl)ccc23)cc1 | 744 nM
Cc1ccc(CN2CCN(c3cc4c(cc3Cl)CCN4C(=O)Cc3ccc(Cl)c(NC(=O)Nc4cccc(C#N)c4)c3)CC2)cc1 | 1130 nM
O=C(Nc1cccc(CN2CCCN(Cc3cccnc3)CC2)c1)c1cc2ccccc2s1 | 1470 nM
Oc1ccc(C2CNCCc3c2cc(O)c(OCc2ccccc2)c3Cl)cc1 (centres undefined) | 716 nM
Oc1cccc2c1CC(NCc1ccccc1)CC2 (centres undefined) | 887 nM
Oc1cccc(C2CCCN(CCc3c[nH]c4ccccc34)C2)c1 (centres undefined) | 857 nM
Cc1cc(Nc2cc(Cl)cc(Cl)c2)nc(N)n1 | 1140 nM
COc1ccc(NC(=O)c2ccc(Br)c(C)c2)cc1N1CCN(Cc2ccccc2)CC1 | 918 nM
CC(=O)Nc1cccc(C(=O)Nc2cccc(-c3ccc(-c4nc5cc(F)ccc5[nH]4)cc3)c2)c1 | 764 nM
Cc1cccnc1Nc1nc(-c2ccccn2)cs1 | 687 nM
COc1ccc(CC(=O)NC(CCN2CCC3(CC2)CN(S(C)(=O)=O)c2ccccc23)c2ccc(Cl)c(Cl)c2)cc1OC (centres undefined) | 998 nM
Fc1ccc2ncc(Cl)c(CCN3CCC(NCc4cc5c(cn4)OCCO5)CC3)c2c1 | 884 nM
COc1cc(CNC2Cc3ccccc3C2)ccc1Oc1ccc2nc[nH]c2c1 | 949 nM
CC1CN(c2cccc3c2nc(-c2cncc(C#N)c2)n3CCNCc2ccccc2)CC(C)O1 (centres undefined) | 1220 nM
CCc1ccc(CN2CCC(C(=O)Nc3ccc(-c4nc5ccccc5[nH]4)cc3)CC2)o1 | 610 nM
CCNc1cc(C(=O)N[C@@H](Cc2cccc(F)c2)[C@H](O)CNC(C)CCCC(C)C)cc(N2CCCCS2(=O)=O)c1 (some centres undefined) | 596 nM
Cc1cc(-c2cc(Cl)ccc2Cl)no1 | 168 nM
Oc1ccc(CCCNc2nc(NCc3cccc4ccccc34)nc(N3CCNCC3)n2)cc1 | 808 nM
C=CCNC(=O)CCCNC(=N)N | 717 nM
COc1cccc(OC2CCN(C(=O)c3cc(C(C)(C)C)nn3Cc3ccccc3)CC2)c1 | 254 nM
COc1cccc(-c2cc(C(=O)NC3CCC(N4CCC(c5ccccc5C)CC4)CC3)[nH]n2)c1 (centres undefined) | 1120 nM
COc1ccccc1CC(C)NCC(O)c1cccc(Cl)c1 (centres undefined) | 811 nM
COc1ccc(-c2ccc(NC(=O)c3ccc(C#N)cc3)cc2)cc1CN1CCCC1 | 873 nM

SMILES | XC50
O=C(/C=C/c1ccc(Cl)c(Cl)c1)NC1CCN(Cc2ccc(O)cc2)CC1 | 691 nM
O=C(/C=C/c1ccccc1Cl)NC1CCC(CN2C3CCC2CC(c2c[nH]c4ccccc24)C3)CC1 (centres undefined) | 706 nM
c1cc(CN2CCCCC2)cc(-c2ccc(-c3nc4ccccc4[nH]3)cc2)c1 | 889 nM
CC(C)CNCc1cccc(-c2cccc(CNC3CCN(Cc4ccccc4)CC3)c2)c1 | 183 nM
CN(C)c1ccc2c(c1)Sc1cc(N(C)C)ccc1N2C(=O)c1cccc(C(=O)O)c1 | 184 nM
Cc1cc(NC(=O)c2cccs2)ccc1OC1CCN(Cc2ccc(F)cc2)CC1 | 481 nM
O=S(=O)(c1cc(Cl)ccc1Cl)N1CCCCC(c2ccc(C(F)(F)F)cc2)=N1 | 998 nM
CNC(=O)c1cncc(/C=C/c2ccccc2S(N)(=O)=O)c1 | 694 nM
COc1ccc(N2CCN(CCCC/C=C/c3ccc(NC(=O)c4cc(Cl)cc(Cl)c4)cc3)CC2)c(OC)c1 | 660 nM
O=C(NC1CC1)c1cnc(N2CCC(Cc3ccccc3)CC2)c(Cl)c1 | 672 nM
CC(=O)Nc1ccc(C(=O)Nc2cccc(-c3cccc(-c4nc5cccc(C)c5[nH]4)c3)c2)cn1 | 64.7 nM
CC=CC1CCNC(C(O)c2ccnc3ccc(OC)cc23)C1 (centres undefined) | 1090 nM
O=c1cc(NCCCCNCc2cccc(C(F)(F)F)c2)[nH]c2ccccc12 | 789 nM
CCCCCCCCN1CCN(CCCCCCNc2c3ccccc3nc3ccccc23)CC1 | 162 nM
CCCCn1c(-c2ccco2)nc2c(c(=O)c3ccccc3n2C)c1=O | 1240 nM
Cc1ccc2[nH]c(NC#N)nc2c1 | 1150 nM
COc1ccc2nc3cc(Cl)ccc3c(N)c2c1 | 165 nM
CN1CCCC(CN2CCN(Cc3cccc(-c4ccc(-c5nc6ccccc6[nH]5)s4)c3)CC2)C1 (centres undefined) | 149 nM
Cc1ccc(CNC(=O)[C@H](Cc2ccccc2)Nc2cc(C)nc(Nc3ccccc3)n2)cc1 | 853 nM
c1ccc(CN2CCC(NCc3ccccc3-c3cccc(CNC4CCCC4)c3)CC2)cc1 | 718 nM
CC(C)CC(=O)NC1CCN(Cc2c(-c3cccs3)nc3ccccc3c2C(=O)N[C@@H](C)C2CCCCC2)CC1 | 819 nM
CN(c1ccc2c(c1)nc(NC(=O)C1(c3cc(F)ccc3F)CC1)n2C)c1ccnc(Nc2cccc(CS(C)(=O)=O)c2)n1 | 1100 nM
Cc1ccc(NC(=O)c2ccc(CN3CCCN(CCC(C)C)CC3)cc2)cc1F | 609 nM
Cc1cccc2nc(-c3ccc(-c4ccc(CN5CCN(CC6CCCN(C)C6)CC5)cc4)s3)[nH]c12 (centres undefined) | 142 nM
C=C[C@H]1CN(CCCCCCC)CC[C@H]1CCN(C)c1ccnc2ccc(OC)cc12 | 446 nM

SMILES | XC50
Oc1ccc2[nH]c(-c3cccc(F)c3)nc2c1CN1CCC(O)(c2ccccc2)CC1 | 994 nM
Cc1nc(C)c(-c2cccc(Oc3ccc(Cl)cc3)c2)c(O)c1Br | 73.6 nM
Cc1cc(N2C(N)=NC(N)=NC2(C)C)ccc1Cl | 20.9 nM
O=C(c1ccc([N+](=O)[O-])o1)N1CCC(c2cn(Cc3cccc(F)c3)c3ccccc23)CC1 | 637 nM
CCCOc1ccccc1C(=O)Nc1nonc1-c1ccc(OCC)c(OCC)c1 | 711 nM
Cc1ccc(Nc2nccc(NCC(O)c3ccc(C(F)(F)F)cc3)n2)cc1 (centres undefined) | 491 nM
CCC(C)OC(=O)C1=C(C)NC2=C(C(=O)CC(c3ccc(OC)c(OC)c3)C2)C1c1ccc(O)cc1 (centres undefined) | 218 nM
CCN1C(=O)C(CC(=O)Nc2cccc(Cl)c2)N(Cc2ccc(OC)c(OC)c2)C1=S (centres undefined) | 607 nM
CC(Nc1nc(Nc2ccc(F)cc2)nc(SCC(N)=O)n1)c1ccccc1 (centres undefined) | 496 nM
Cc1c(CC(=O)NCCC2CCN(CCCCCNC(=O)/C=C/c3ccc(Cl)c(Cl)c3)CC2)sc2ccc(Cl)cc12 | 880 nM
O=C(Nc1ccc(F)c(F)c1)c1ccc(CN2CCCN(Cc3cccc(O)c3)CC2)cc1 | 836 nM
Cc1nc(C)c(-c2ccc(Oc3ccc(Cl)c(Cl)c3)cc2)c(O)c1Br | 304 nM
c1ccc(CN2CCC(Nc3ccc(-c4c[nH]nc4-c4ccccn4)nc3)CC2)cc1 | 799 nM
CC(C)CCN1CCC(Oc2ccc(NC(=O)c3ccc4ncccc4c3)cc2Cl)C1 (centres undefined) | 974 nM
C[C@H](Cc1ccc(OCCCCCCOc2ccc(C[C@@H](C)NC(=O)[C@H](O)c3cccc(Cl)c3)cc2)cc1)NC[C@H](O)c1cccc(Cl)c1 | 381 nM
CN1C(C)(C)CC(NC(=O)c2ccc(-c3cc4cc(Cl)c(Cl)cc4[nH]3)o2)CC1(C)C | 1120 nM
COc1ccc2nccc(N3CCC(CCNCc4ccc5c(n4)NC(=O)CS5)CC3)c2c1 | 209 nM
CCCCCCN1CCC(NCc2ccc(C)cc2)CC1 | 860 nM
CC(C)NC(C)(C)CN(Cc1ccc(-c2ccc(C(F)(F)F)cc2)cc1)C(=O)Cn1c(CCc2cccc(F)c2F)nc(=O)c2ccccc21 | 908 nM
CC(Cc1ccc(NC(=O)CCCc2ccccc2)cc1)NCCc1cccc(Cl)c1 (centres undefined) | 945 nM
N#Cc1ccc(-c2ccc(C(=O)NCC3CCN(CCN4CCC(c5ccc6c(c5OCC(N)=O)CCCC6)CC4)CC3)cc2)cc1 | 443 nM
Cc1[nH]c2ccc(-c3ccccc3)cc2c(=O)c1Br | 162 nM
CC(Cc1ccc(NC(=O)c2ccc(NCCc3ccccc3)cc2)cc1)NCCc1cccc(Cl)c1 (centres undefined) | 854 nM
CC(=O)Nc1ccc(C(=O)Nc2cccc(-c3csc(-c4nc5ccccc5[nH]4)c3)c2)cn1 | 119 nM
C(=N\Nc1nccc2sc(-c3cccnc3)cc12)/c1cccnc1 | 423 nM

SMILES | XC50
Cc1noc(C)c1-c1cccc(CNCc2cccc(-c3ccc(-c4nc5cc(C(F)(F)F)ccc5[nH]4)s3)c2)c1 | 166 nM
Cc1ncccc1C(=O)Nc1ccc(-c2cccc(-c3nc4cccc(C)c4[nH]3)c2)cc1 | 733 nM
O=C1C2C3SC(c4c3ccc3ccccc43)C2C(=O)N1c1ccccc1 (centres undefined) | 770 nM
O=C(COc1ccccc1)Nn1cnc2ccccc21 | 1050 nM
CC(Cc1ccc(OCCN2CCN(c3cccc(C(F)(F)F)c3)CC2)cc1)NCC(O)c1cccc(C(F)(F)F)c1 (centres undefined) | 181 nM
CC(C)Sc1nncc(-c2cnnc(SC(C)C)n2)n1 | 141 nM
O=C(COc1cnc2ccccc2n1)Nc1ccccc1Sc1ccc(Cl)cc1 | 728 nM
CCOc1cc(C(=O)NC2CC(C)(C)NC(C)(C)C2)ccc1-c1cc2cc(Cl)c(Cl)cc2[nH]1 | 770 nM
CCCCOC(=O)NCCCC[C@H](NC(=O)OC(C)(C)C)C(=O)N[C@H](C(=O)OC(c1ccccc1)c1ccccc1)[C@H]1O[C@@H](n2ccc(=O)[nH]c2=O)[C@@H]2OC(C)(C)O[C@@H]21 | 1090 nM
c1ccc2[nH]c(-c3ccc(-c4ccc(CN5CCC(N6CCCCC6)CC5)cc4)s3)nc2c1 | 153 nM
Cc1cccc(Cn2ccc3c4c(N)nc(N)nc4ccc32)c1 | 7.35 nM
CCCCc1ccc2[nH]cc(C3=CCN(C)CC3)c2c1Br | 627 nM
Cc1ccc(O)cc1Nc1ccnc2ccc(-c3cccc(CN(C)C)c3)cc12 | 515 nM
Cc1nc(Nc2cc(Cl)ccc2O)nc(Nc2cc(Cl)ccc2O)c1[N+](=O)[O-] | 29.4 nM
Cc1cccc2nc(-c3ccc(-c4ccc(NC(=O)Nc5ccc(Cl)cc5)cc4)cc3)[nH]c12 | 100 nM
COC(=O)c1cccc(OCCNC2CCN(C[C@H](O)c3ccnc4ccc(OC)cc34)CC2)c1 | 342 nM
CCc1sc(N2CCC(C)CC2)nc1C(=O)Nc1ccc(F)cc1C(F)(F)F | 1090 nM
Cn1c(Nc2cc(C(C)(C)C)on2)nc2cc(Nc3ccnc(Nc4ccc(CS(C)(=O)=O)cc4)n3)ccc21 | 977 nM
CC(=O)Nc1cc(C(=O)Nc2cccc(-c3csc(-c4nc5ccccc5[nH]4)c3)c2)ccc1C | 465 nM
O=S(=O)(c1cc(Cl)sc1Cl)N(CCC(O)(C(F)(F)F)C(F)(F)F)Cc1cccc(O)c1 | 744 nM
COc1ccc(C2CC(c3ccccc3O)=NN2C(=O)c2ccco2)cc1OC (centres undefined) | 947 nM
COc1ccc2nccc([C@@H](O)CN3CCC(NC(=O)/C=C/c4ccc5[nH]c(=O)ccc5c4)CC3)c2c1 | 967 nM
c1ccc(-c2cc3cccc(-c4nc5cnccc5[nH]4)c3o2)cc1 | 115 nM
Nc1ncc(-c2ccccc2)cc1-c1nc2cc(Cl)c(F)cc2[nH]1 | 263 nM
